Data from patent US12252701B2, “Chimeric antigen receptor T cell therapy” (KITE PHARMA, INC., priority 2020, dated 2025).

Experiments:
[1] = tested on: phospho-STAT-1, -3 and -5 in purified CD14+ monocytes; experiment: Intracellular phospho-STAT-1, -3, -5 by BD PhosphoFlow in purified monocytes; format: cell-based, human; set-up: Monocyte-specific pSTAT1 signaling, inhibition / Monocyte-specific pSTAT3 signaling, inhibition / Monocyte-specific pSTAT5 signaling, inhibition: concentration or dose not given beside the values; settings: purified CD14+ monocytes
Description: (§1) Further experiments were performed to look at impacts of JAK inhibitors on STAT phosphorylation in various immune cell subsets.

[2] = tested on: NALM6.GFP.LUC.CD19 target cells; experiment: Serial killing assay of CAR-T, percent cytotoxicity by luciferase detection; settings: two different E:T ratios, dose titration
Description: The percent cytotoxicity to NALM6.GFP.LUC.CD19 target cells was measured by luciferase detection at each round.
In one embodiment, a serial killing assay is a combination of cell killing and how long it takes for CAR T cells to get exhausted under repeated stimulation. In one embodiment, a serial killing assay is a surrogate measure for CAR T cell persistence in vivo.

[3] = tested on: phospho-STAT-1, -3 and -5 in CD4, CD8 T cells and monocytes (CAR T product, PBMCs); experiment: Intracellular phospho-STAT-1, -3, -5 by flow cytometry in immune cell subsets of CAR T product and PBMCs; format: cell-based, human; set-up: Primary Cell IL-6 pSTAT5 signaling (% inhibition) / Primary Cell IL-6 pSTAT1 signaling (% inhibition) / Primary Cell IL-6 pSTAT3 signaling (% inhibition) / Primary cell GM-CSF-pSTAT5, inhibition: concentration or dose not given beside the values
Description: as §1

Nalm-6 luc = experiment: CAR-T cell killing assay (luciferase viability of tumor cells)
[4] = tested on: phospho-STAT panel (pSTAT3/4/5), CD3+ T cells; experiment: phospho-STAT induction by IL-6, MesoScale Discovery phospho-STAT panel; format: cell-based, human; settings: CD3+ T cells
Outline: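 CD19 CAR-T cells, PBMC or CD3+ T cells, rested overnight, were stimulated at 700,000 cells/well with 100 ng/ml IL6 plus compound for 20 minutes at 37° C. Cells were lysed in Tris buffer and pSTAT3/4/5 measured by MSD electrochemiluminescence immunoassay.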

[5] = CAR T cell-derived supernatant, 30 min

## CC[C@@H]1CN(C(=O)NCC(F)(F)F)C[C@@H]1c1cnc2cnc3[nH]ccc3n12 [upadacitinib]
[1]; [5]
  Monocyte-specific pSTAT1 signaling, inhibition: 100%
  Monocyte-specific pSTAT3 signaling, inhibition: 100%
  Monocyte-specific pSTAT5 signaling, inhibition: 63%
[1]; rh-GM-CSF-induced
  Monocyte-specific pSTAT1 signaling, inhibition: na/ni
  Monocyte-specific pSTAT3 signaling, inhibition: na/ni
  Monocyte-specific pSTAT5 signaling, inhibition: 54%
[1]; rhIFNg-induced
  Monocyte-specific pSTAT1 signaling, inhibition: 100%
  Monocyte-specific pSTAT3 signaling, inhibition: 100%
  Monocyte-specific pSTAT5 signaling, inhibition: 100%
[1]; rhIL6-induced
  Monocyte-specific pSTAT1 signaling, inhibition: na/ni
  Monocyte-specific pSTAT3 signaling, inhibition: 100%
  Monocyte-specific pSTAT5 signaling, inhibition: na/ni
[2]
  impact on CAR-T serial killing (percent cytotoxicity): negative impacts
[3]; CD4 CART cells
  Primary Cell IL-6 pSTAT1 signaling (% inhibition): 49%
  Primary Cell IL-6 pSTAT3 signaling (% inhibition): 76%
  Primary Cell IL-6 pSTAT5 signaling (% inhibition): 60%
[3]; CD8 CART cells
  Primary Cell IL-6 pSTAT1 signaling (% inhibition): 13%
  Primary Cell IL-6 pSTAT3 signaling (% inhibition): 48%
  Primary Cell IL-6 pSTAT5 signaling (% inhibition): 52%
[3]; Monocytes within bulk PBMCs
  Primary cell GM-CSF-pSTAT5, inhibition: 97%
[3]; PBMC CD4 T cells
  Primary Cell IL-6 pSTAT1 signaling (% inhibition): 74%
  Primary Cell IL-6 pSTAT3 signaling (% inhibition): 91%
  Primary Cell IL-6 pSTAT5 signaling (% inhibition): 87%
[3]; PBMC CD8 T cells
  Primary Cell IL-6 pSTAT1 signaling (% inhibition): 32%
  Primary Cell IL-6 pSTAT3 signaling (% inhibition): 70%
  Primary Cell IL-6 pSTAT5 signaling (% inhibition): 56%
[3]; PBMC Monocytes
  Primary Cell IL-6 pSTAT1 signaling (% inhibition): 48%
  Primary Cell IL-6 pSTAT3 signaling (% inhibition): 93%
  Primary Cell IL-6 pSTAT5 signaling (% inhibition): 48%
[3]; T cells within bulk PBMCs
  Primary cell GM-CSF-pSTAT5, inhibition: 47%
Nalm-6 luc; E:T ratio 1:1, dose 10 nM
  Mean tumor cell death (%): 96.9%
Nalm-6 luc; E:T ratio 1:1, dose 20 nM
  Mean tumor cell death (%): 96.3%
Nalm-6 luc; E:T ratio 1:1, dose 40 nM
  Mean tumor cell death (%): 96.3%
Nalm-6 luc; E:T ratio 1:1, dose 60 nM
  Mean tumor cell death (%): 94.5%
Nalm-6 luc; E:T ratio 1:1, dose 80 nM
  Mean tumor cell death (%): 94.4%
Nalm-6 luc; E:T ratio 1:1, dose 100 nM
  Mean tumor cell death (%): 92%
Nalm-6 luc; E:T ratio 1:3, dose 10 nM
  Mean tumor cell death (%): 68.1%
Nalm-6 luc; E:T ratio 1:3, dose 20 nM
  Mean tumor cell death (%): 66.1%
Nalm-6 luc; E:T ratio 1:3, dose 40 nM
  Mean tumor cell death (%): 60.5%
Nalm-6 luc; E:T ratio 1:3, dose 60 nM
  Mean tumor cell death (%): 46.2%
Nalm-6 luc; E:T ratio 1:3, dose 80 nM
  Mean tumor cell death (%): 46.5%
Nalm-6 luc; E:T ratio 1:3, dose 100 nM
  Mean tumor cell death (%): 25.7%
Nalm-6 luc; E:T ratio 1:9, dose 10 nM
  Mean tumor cell death (%): 35.6%
Nalm-6 luc; E:T ratio 1:9, dose 20 nM
  Mean tumor cell death (%): 25.6%
Nalm-6 luc; E:T ratio 1:9, dose 40 nM
  Mean tumor cell death (%): 34.7%
Nalm-6 luc; E:T ratio 1:9, dose 60 nM
  Mean tumor cell death (%): 33.4%
Nalm-6 luc; E:T ratio 1:9, dose 80 nM
  Mean tumor cell death (%): 23%
Nalm-6 luc; E:T ratio 1:9, dose 100 nM
  Mean tumor cell death (%): 16.9%
[4]; 100 ng/ml IL-6 + drug 10 uM, 20 min, MSD signal (No stim. 689, IL-6 alone 33641)
  pSTAT3: 2450
[4]; 100 ng/ml IL-6 + drug 10 uM, 20 min, MSD signal (No stim. 1964, IL-6 alone 15405)
  pSTAT4: 2322
[4]; 100 ng/ml IL-6 + drug 10 uM, 20 min, MSD signal (No stim. 9210, IL-6 alone 17743)
  pSTAT5: 1354
[4]; IL-6 + drug 0.125 uM, MSD signal (No stim. 689, IL-6 alone 33641)
  pSTAT3: 3605
[4]; IL-6 + drug 0.125 uM, MSD signal (No stim. 1964, IL-6 alone 15405)
  pSTAT4: 2819
[4]; IL-6 + drug 0.125 uM, MSD signal (No stim. 9210, IL-6 alone 17743)
  pSTAT5: 1757
[4]; IL-6 + drug 0.5 uM, MSD signal (No stim. 689, IL-6 alone 33641)
  pSTAT3: 2207
[4]; IL-6 + drug 0.5 uM, MSD signal (No stim. 1964, IL-6 alone 15405)
  pSTAT4: 2397
[4]; IL-6 + drug 0.5 uM, MSD signal (No stim. 9210, IL-6 alone 17743)
  pSTAT5: 1528
[4]; IL-6 + drug 1 uM, MSD signal (No stim. 689, IL-6 alone 33641)
  pSTAT3: 2393
[4]; IL-6 + drug 1 uM, MSD signal (No stim. 1964, IL-6 alone 15405)
  pSTAT4: 2417
[4]; IL-6 + drug 1 uM, MSD signal (No stim. 9210, IL-6 alone 17743)
  pSTAT5: 1534
[4]; IL-6 + drug 5 uM, MSD signal (No stim. 689, IL-6 alone 33641)
  pSTAT3: 2290
[4]; IL-6 + drug 5 uM, MSD signal (No stim. 1964, IL-6 alone 15405)
  pSTAT4: 2229
[4]; IL-6 + drug 5 uM, MSD signal (No stim. 9210, IL-6 alone 17743)
  pSTAT5: 1452
[4]; lower dose titration, IL-6 + drug 3.125 nM, MSD signal (No stim. 123, IL-6 alone 5767)
  pSTAT3: 4615
[4]; lower dose titration, IL-6 + drug 3.125 nM, MSD signal (No stim. 281, IL-6 alone 3624)
  pSTAT4: 2687
[4]; lower dose titration, IL-6 + drug 3.125 nM, MSD signal (No stim. 324, IL-6 alone 2352)
  pSTAT5: 1166
[4]; lower dose titration, IL-6 + drug 6.25 nM, MSD signal (No stim. 123, IL-6 alone 5767)
  pSTAT3: 3572
[4]; lower dose titration, IL-6 + drug 6.25 nM, MSD signal (No stim. 281, IL-6 alone 3624)
  pSTAT4: 2797
[4]; lower dose titration, IL-6 + drug 6.25 nM, MSD signal (No stim. 324, IL-6 alone 2352)
  pSTAT5: 1123
[4]; lower dose titration, IL-6 + drug 12.5 nM, MSD signal (No stim. 123, IL-6 alone 5767)
  pSTAT3: 2560
[4]; lower dose titration, IL-6 + drug 12.5 nM, MSD signal (No stim. 281, IL-6 alone 3624)
  pSTAT4: 1607
[4]; lower dose titration, IL-6 + drug 12.5 nM, MSD signal (No stim. 324, IL-6 alone 2352)
  pSTAT5: 696
[4]; lower dose titration, IL-6 + drug 25 nM, MSD signal (No stim. 123, IL-6 alone 5767)
  pSTAT3: 1495
[4]; lower dose titration, IL-6 + drug 25 nM, MSD signal (No stim. 281, IL-6 alone 3624)
  pSTAT4: 1248
[4]; lower dose titration, IL-6 + drug 25 nM, MSD signal (No stim. 324, IL-6 alone 2352)
  pSTAT5: 564
[4]; lower dose titration, IL-6 + drug 50 nM, MSD signal (No stim. 123, IL-6 alone 5767)
  pSTAT3: 713
[4]; lower dose titration, IL-6 + drug 50 nM, MSD signal (No stim. 281, IL-6 alone 3624)
  pSTAT4: 860
[4]; lower dose titration, IL-6 + drug 50 nM, MSD signal (No stim. 324, IL-6 alone 2352)
  pSTAT5: 460
[4]; lower dose titration, IL-6 + drug 100 nM, MSD signal (No stim. 123, IL-6 alone 5767)
  pSTAT3: 319
[4]; lower dose titration, IL-6 + drug 100 nM, MSD signal (No stim. 281, IL-6 alone 3624)
  pSTAT4: 555
[4]; lower dose titration, IL-6 + drug 100 nM, MSD signal (No stim. 324, IL-6 alone 2352)
  pSTAT5: 375
